Results as given in ChEMBL document CHEMBL5543108, “Structure-based design and synthesis of BML284 derivatives: A novel class of colchicine-site noncovalent tubulin degradation agents” (Eur J Med Chem, 2024).
Activity calls are given as the source filed them. The rule behind the calls is not given here.

Legend:
[1] = tested on: A2780S; assay: Antiproliferative activity against human A2780S cells assessed as reduction in cell viability measured after 72 hrs; assay type: functional, cell-based
[2] = tested on: A2780/Taxol; assay: Induction of cell cycle arrest in human A2780T cells assessed as accumulation of cells at G0/G1 phase at 300 nM measured after 24 hrs by propidium iodide staining based analysis (reference value: 46.141%); assay type: functional
[3] = tested on: A2780S; assay: Induction of cell cycle arrest in human A2780S cells assessed as accumulation of cells at G2/M phase at 100 nM measured after 24 hrs by propidium iodide staining based analysis (reference value: 18.43%); assay type: functional
[4] = tested on: A2780S; assay: Induction of cell cycle arrest in human A2780S cells assessed as accumulation of cells at S phase at 10 nM measured after 24 hrs by propidium iodide staining based analysis (reference value: 29.85%); assay type: functional
[5] = target: Tubulin beta (Homo sapiens) (UniProt P68371+Q9H4B7+Q13509+P04350+Q3ZCM7+P07437+Q13885+Q9BVA1+Q9BUF5+A6NNZ2); assay: Binding affinity to beta-tubulin colchicine binding site in human HeLa cells assessed as inhibition of EBI-beta-tubulin adduct band formation by EBI competition based Western blot analysis; assay type: cell-based; settings: dose 0.2-25 µM
[6] = Volume of distribution at steady state in male Sprague-Dawley rat at 10 mg/kg, po; assay type: ADME, organism-based; settings: in vivo
[7] = tested on: A2780/Taxol; assay: Induction of cell cycle arrest in human A2780T cells assessed as accumulation of cells at G0/G1 phase at 100 nM measured after 24 hrs by propidium iodide staining based analysis (reference value: 46.141%); assay type: functional
[8] = Toxicity in mouse xenografted with human A2780S cells assessed as effect on body weight at 10 to 30 mg/kg, iv measured upto 12 days; assay type: organism-based; settings: in vivo, 288 h, dose 10-30 mg/kg, time < 12 day
[9] = tested on: A2780/Taxol; assay: Induction of cell cycle arrest in human A2780T cells assessed as accumulation of cells at S phase at 10 nM measured after 24 hrs by propidium iodide staining based analysis (reference value: 29.73%); assay type: functional
[10] = tested on: A2780/Taxol; assay: Induction of cell cycle arrest in human A2780T cells assessed as accumulation of cells at G0/G1 phase at 3 nM measured after 24 hrs by propidium iodide staining based analysis (reference value: 46.141%); assay type: functional
[11] = Half life in male Sprague-Dawley rat at 10 mg/kg, po; assay type: ADME, organism-based; settings: in vivo
[12] = target: Tubulin (Homo sapiens) (UniProt P68371+Q9H4B7+P0DPH7+P68366+Q13509+Q71U36+P04350+Q3ZCM7+P07437+P68363+Q9BQE3+Q6PEY2+Q13885+Q9BVA1+Q9BUF5); assay: Induction of tubulin degradation in human HeLa cells at 1 uM measured after 24 hrs by immunoblot analysis; assay type: cell-based
[13] = tested on: A2780/Taxol; assay: Induction of apoptosis in human A2780T cells assessed as total number of late apoptotic cells at 30 nM measured after 48 hrs by Annexin-V-FITC and PI staining based flow cytometry analysis (reference value: 3.42%); assay type: functional
[14] = tested on: A2780S; assay: Antitumor activity against human A2780S cells xenografted in mouse model assessed as tumor growth inhibition at 10 mg/kg, iv administered every two days for 12 days relative to control; assay type: functional; settings: 288 h, time 12 day, read-out: TGI
[15] = Half life in male Sprague-Dawley rat at 10 mg/kg, iv; assay type: ADME, organism-based; settings: in vivo
[16] = tested on: A2780S; assay: Induction of cell cycle arrest in human A2780S cells assessed as accumulation of cells at G0/G1 phase at 100 nM measured after 24 hrs by propidium iodide staining based analysis (reference value: 51.71%); assay type: functional
[17] = tested on: HUVEC; assay: Antivascular activity against human HUVEC cells assessed as inhibition of capillary tube formation incubated for 24 hrs by microscopy based analysis; assay type: functional, cell-based
[18] = tested on: A2780S; assay: Induction of cell cycle arrest in human A2780S cells assessed as accumulation of cells at S phase at 100 nM measured after 24 hrs by propidium iodide staining based analysis (reference value: 29.85%); assay type: functional
[19] = tested on: A2780/Taxol; assay: Induction of cell cycle arrest in human A2780T cells assessed as accumulation of cells at S phase at 30 nM measured after 24 hrs by propidium iodide staining based analysis (reference value: 29.73%); assay type: functional
[20] = tested on: A2780S; assay: Induction of cell cycle arrest in human A2780S cells assessed as accumulation of cells at G2/M phase at 3 nM measured after 24 hrs by propidium iodide staining based analysis (reference value: 18.43%); assay type: functional
[21] = tested on: A2780/Taxol; assay: Induction of cell cycle arrest in human A2780T cells assessed as accumulation of cells at G0/G1 phase at 10 nM measured after 24 hrs by propidium iodide staining based analysis (reference value: 46.141%); assay type: functional
[22] = tested on: A549; assay: Antiproliferative activity against human A549 cells assessed as reduction in cell viability measured after 72 hrs; assay type: functional, cell-based; settings: A549, 72 h
[23] = tested on: HCT-116; assay: cells; settings: Homo sapiens, HCT-116, 72 h
Description: Antiproliferative activity against human HCT-116 cells assessed as reduction in cell viability measured after 72 hrs

[24] = tested on: A2780/Taxol; assay: Induction of cell cycle arrest in human A2780T cells assessed as accumulation of cells at G2/M phase at 100 nM measured after 24 hrs by propidium iodide staining based analysis (reference value: 24.13%); assay type: functional
[25] = tested on: A2780S; assay: Induction of cell cycle arrest in human A2780S cells assessed as accumulation of cells at S phase at 300 nM measured after 24 hrs by propidium iodide staining based analysis (reference value: 29.85%); assay type: functional
[26] = Clearance in male Sprague-Dawley rat at 10 mg/kg, po; assay type: ADME, organism-based; settings: in vivo
[27] = tested on: A549/TR; assay: Antiproliferative activity against paclitaxel resistant human A549T cells assessed as reduction in cell viability measured after 72 hrs; assay type: functional, cell-based
[28] = tested on: A2780S; assay: Induction of cell cycle arrest in human A2780S cells assessed as accumulation of cells at G2/M phase at 300 nM measured after 24 hrs by propidium iodide staining based analysis (reference value: 18.43%); assay type: functional
[29] = tested on: A2780/Taxol; assay: Antiproliferative activity against human A2780T cells assessed as reduction in cell viability measured after 72 hrs; assay type: functional, cell-based
[30] = tested on: A2780/Taxol; assay: Induction of cell cycle arrest in human A2780T cells assessed as accumulation of cells at S phase at 3 nM measured after 24 hrs by propidium iodide staining based analysis (reference value: 29.73%); assay type: functional
[31] = Cmax in male Sprague-Dawley rat at 10 mg/kg, iv; assay type: ADME, organism-based; settings: in vivo
[32] = tested on: A2780/Taxol; assay: Induction of cell cycle arrest in human A2780T cells assessed as accumulation of cells at S phase at 300 nM measured after 24 hrs by propidium iodide staining based analysis (reference value: 29.73%); assay type: functional
[33] = tested on: A2780S; assay: Induction of cell cycle arrest in human A2780S cells assessed as accumulation of cells at G0/G1 phase at 300 nM measured after 24 hrs by propidium iodide staining based analysis (reference value: 51.71%); assay type: functional
[34] = Tmax in male Sprague-Dawley rat at 10 mg/kg, po; assay type: ADME, organism-based; settings: in vivo
[35] = tested on: MOLM-13; assay: Antiproliferative activity against human MOLM-13 cells assessed as reduction in cell viability measured after 72 hrs; assay type: functional, cell-based; settings: MOLM-13, 72 h
[36] = tested on: A2780/Taxol; assay: Induction of cell cycle arrest in human A2780T cells assessed as accumulation of cells at G2/M phase at 3 nM measured after 24 hrs by propidium iodide staining based analysis (reference value: 24.13%); assay type: functional

## COc1cccc(-c2cc(NCc3ccc4[nH]ccc4c3)nc(N)n2)c1
[1]
  IC50: 18 nM
[2]
  Activity: 4.64%
[3]
  Activity: 42.46%
[4]
  Activity: 29.27%
[5]
  Activity: Dose-Dependent Effect
[6]
  Vdss: 154.68 L/kg
[7]
  Activity: 7.72%
[8]
  Activity: Non-Toxic
[9]
  Activity: 32.91%
[10]
  Activity: 50.87%
[11]
  half-life: 5.94 h
[12]
  Activity: Active
[13]
  Activity: 5.29%
[14]
  inhibition in vivo at 10 mg/kg: 45.3%
[15]
  half-life: 1.93 h
[16]
  Activity: 20.38%
[17]
  IC50: 623 nM
[18]
  Activity: 37.17%
[19]
  Activity: 35.74%
[20]
  Activity: 23.17%
[21]
  Activity: 46.48%
[22]
  IC50: 34 nM
[23]
  IC50: 30 nM
[24]
  Activity: 83.16%
[25]
  Activity: 16.35%
[26]
  CL/F: 314 mL/min/kg
[27]
  IC50: 37 nM
[28]
  Activity: 82.11%
[29]
  IC50: 16 nM
[30]
  Activity: 29.77%
[31]
  Cmax: 2890 ng/mL
[32]
  Activity: 11.38%
[33]
  Activity: 1.54%
[34]
  Tmax: 3.67 h
[35]
  IC50: 20 nM
[36]
  Activity: 19.35%
